Here are results for five molecules from patent US6423494B1, “DR6 and uses thereof” (Millennium Pharmaceuticals, Inc., priority 1999, dated 2002).

The experiment deals with colon cancer cell line SW-620. Put plainly: Drug sensitivity of colon cancer cell line SW-620 (NCI60 panel). It counts as cell-based, human. Conditions: SW-620 colon cancer cell line, in which DR6 does not appear to be expressed (Northern analysis). How it is done:
In order to identify genes involved in drug resistance, the expression various genes in drug resistant cancer cells was measured. The drug resistant cancer cell lines used were all members of the NCI60 panel of drug resistant cell lines. The cell lines in this panel are resistant to one or more chemotherapeutic compounds.
With `O=C(O)CCCc1ccc(N(CCCl)CCCl)cc1` [chlorambucil], the “sensitivity of the cell line to the drug” value is reported as “relatively sensitive”.

On to `N.N.[Cl][Pt][Cl]` [cisplatin], for which the “sensitivity of the cell line to the drug” value is “relatively sensitive”.

With `COc1cccc2c1C(=O)c1c(O)c3c(c(O)c1C2=O)C[C@@](O)(C(=O)CO)C[C@@H]3O[C@H]1C[C@H](N)[C@H](O)[C@H](C)O1` [doxorubicin], the “sensitivity of the cell line to the drug” value is given as “relatively sensitive”.

Regarding `COc1cc([C@@H]2c3cc4c(cc3[C@@H](O[C@@H]3O[C@@H]5CO[C@@H](C)O[C@H]5[C@H](O)[C@H]3O)[C@H]3COC(=O)[C@H]23)OCO4)cc(OC)c1O` [etoposide], the “sensitivity of the cell line to the drug” value is reported as “relatively sensitive”.

As for `CC[C@@]1(O)C(=O)OCc2c1cc1n(c2=O)Cc2cc3c(CN(C)C)c(O)ccc3nc2-1` [topotecan], the “sensitivity of the cell line to the drug” value is reported as “relatively sensitive”.
